According to patent publication US12617818B2, “Compositions and methods for modulating myosin subfragment-2 coiled coil stability and methods for using them” (UNIVERSITY OF NORTH TEXAS, priority 2020, dated 2026):

Key:
[1] = biological target: T1, cardiac muscle myosin S2 peptide E930del (MYH7 E930del) (Homo sapiens, UniProt P12883, DEL931-931); assay: GFS, uncoiling of E930del cardiac myosin S2 peptide dimer; type: biochemical; settings: length 10 nm; in presence of stabilizer; ± SEM
T1 construct: host or cells: chemical synthesis
T1 sequence (P12883 with tags, fused parts or gaps DEL931-931): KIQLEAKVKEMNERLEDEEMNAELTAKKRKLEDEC
Source text: 3-aminopropyltriethoxysilane, acetone, coupling buffer (0.01 M pyridine in water with pH 6.0), 5% glutaraldehyde, quenching solution (1 M glycine in water with pH 7.0), blocking buffer (0.01 M Tris, 0.1% sodium azide, 0.1% bovine serum albumin, 0.15 M sodium chloride, and 0.001 M ethylenediaminetetraacetic acid with pH 7.0), wash buffer (0.01 M Tris, 0.1% sodium azide, 0.15 M sodium chloride, and 0.001 M ethylenediaminetetraacetic acid with pH 7.0) low salt buffer (0.1 M potassium chloride, 0.02 M imidazole, 5 mM magnesium chloride, with pH 7.0), 1-ethyl-3-(3-dimethyaminopropyl) carbodiimide, N-hydroxysuccinamide, iodoacetamide-succinimidyl ester, 8M urea solution (50 mM imidazole and 0.1 mM tris (2-carboxyethyl) phosphine with pH 7.0) monodisperse silica beads, glass slides, glass coverslips, vacuum grease, rabbit skeletal myosin, purified actin (G-actin), 1 μM human β-cardiac myosin S2 peptide, 1 μM human β-cardiac mutants myosin S2 peptide (E930del and E924K), 1 μM human skeletal myosin S2 peptide, 1 μM human smooth myosin S2 peptide, stabilizer peptide, and destabilizer peptide. A light microscope with an objective lens of 10× was mounted on an alt-azimuthal mount. A digital video camera of Sony, XCD-V60 was replaced with the ocular lenses. Extension springs on steel bracket held the alt-azimuthal mount suspended.
Gravitational force spectroscopy (GFS), is a single molecule force spectroscopy that utilizes gravitational force to measure absolute length of a single molecule at the given force calculated by the density of the bead suspending the molecule. This technique was discovered and developed in Root lab, which measures the forces in piconewton and sub-piconewton levels. Other than absolute length of a molecule, GFS measures force range required to uncoil, stretch or extend the molecule yielding a force-distance profile for the suspended molecule. Besides that, based on the force-distance profile, number of amino acids within the molecule can be calculated. […] The GFS allowed to test the flexibility or stability of a single molecule of myosin S2 peptide and also for the S2 peptides treated with anti-S2 peptides. Flexibility of myosin S2 is not dependent on assembly myosin as a thick filament or myosin in its single molecule form. […]
Free fall mode, another measurement variant of GFS which allows the user to get a force distance profile on a single molecule experiencing the gravitational force. […] During the free fall mode, GFS has a single molecule which is suspended within an immobile edge and mobile bead will now experience the variable force which would be calculated by the product of mass of the bead and the acceleration of the GFS. […]

[2] = biological target: T2, cardiac muscle myosin S2 mutant peptide E924K (MYH7) (Homo sapiens, UniProt P12883, E924K); assay: FRET of E924K mutant cardiac myosin S2 peptide dimer with stabilizer; type: binding
T2 construct: cardiac muscle myosin S2 peptides region 921 to 939; host or cells: chemical synthesis
Source text: This mutation also causes mechanical instability and unstable coiled coil. Sequence of this mutation was obtained using PDB. A 19 residue peptide of this region was chemically synthesized. Generated amino acid sequence used is as follow: • E924K: NH2-[…]—COOH (SEQ ID NO:9)
Resonance energy probes (donor and acceptor) were covalently attached to synthetic myosin S2 peptides of cardiac muscle, E930del cardiac muscle, E924K cardiac muscle, smooth muscle, and skeletal muscle (Aboonasrshiraz, N., 2020).
Acceptor probe was conjugated to muscle myosin S2 peptides at N-terminus. Muscle myosin S2 peptides were dissolved in 20 mM HEPES buffer at pH 8.0. And FITC was dissolved in few drops of N, N dimethyl formamide. Lastly, FITC and muscle myosin S2 peptide was reacted together in 1 to 1 molar ratio and was let to react for 120 minutes at room temperature. The FITC conjugated S2 peptides were purified using […]. […]
In FRET assay, Fluorescein Isothiocyanate (FITC) functioned as fluorescent acceptor probe and Terbium Diethylene Triamine Pentaacetic Acid-Cytosine (Lanthanide-DTPA-Cytosine) functioned as donor probe. […] Lifetime of donor probe was measured in milliseconds.
E924K and Edel930; the myosin S2 HCM mutants, form unstable dimers. […] The calculated separation distance in presence of the stabilizer peptide was 3.65 nm. […]

- Force required to uncoil S2 molecule [1]: 1.07E+00 ± 8.28E−02 pN
- TD (donor lifetime without acceptor) [2]: 1.94E−03
Structure (SMILES): C[C@H](NC(=O)[C@H](CCCCN)NC(=O)[C@H](Cc1ccccc1)NC(=O)[C@H](CCCCN)NC(=O)[C@H](CCCCN)NC(=O)[C@H](CCCCN)NC(=O)[C@H](CCCCN)NC(=O)[C@H](CCCCN)NC(=O)[C@H](CCCCN)NC(=O)[C@H](CCCCN)NC(=O)[C@@H](N)CCCCN)C(=O)N[C@@H](CCCCN)C(=O)N[C@@H](CCCCN)C(=O)N[C@@H](CCCCN)C(=O)N[C@@H](CCCCN)C(=O)N[C@@H](CCCCN)C(=O)N[C@@H](CCCCN)C(=O)O [Stabilizer]
